In patent US11986540B2, “Compositions including pafolacianine for the identification of malignant lesions” (ON TARGET LABORATORIES, LLC., priority 2022, dated 2024):
Read-outs that look alike come from different tables or passages of the source.

Experiments:
[1] = tested on: panel of 55 pharmacologically-relevant receptors, ion channels and transporters; test: In vitro ligand binding screen (ExpresSProfile; Cerep); details: 5 μM
Procedure: Pafolacianine (5 μM) was evaluated in an in vitro ligand binding screen (ExpresSProfile; Cerep 100010238), which assessed the potential for pafolacianine “off-target” binding to a broad panel of 55 pharmacologically-relevant receptors, ion channels and transporters.

[2] = Repeat once-weekly IV dose toxicokinetics in rats; assay type: in vivo; details: for increase in AUCinf: after 14.9-fold increase in dose; for half-life / AUC(0-inf) / C0 / clearance / Vd: rat, in vivo; for Vd: read-out: Vss
Procedure: […] On both Day 1 and Day 13, increases in pafolacianine exposure (AUCinf) were trending slightly greater than dose proportional, noting that sparse blood sampling was employed so the variability in the AUCs could not be assessed. […] CL was slow (relative to hepatic blood flow) and Vss was moderate. Mean T1/2 ranged from approximately 6 to 11 hours.

[3] = Embryo-fetal development study in rabbits; assay type: in vivo
Procedure: (§1) Pafolacianine was intravenously administered at doses of, during the period of organogenesis namely, 0.015, 0.15, and 1.5 mg/kg/day from gestational day (GD) 6 to GD17 in rats (human equivalent doses (HEDs) of 0.002, 0.024 and 0.242 mg/kg/day) and 0.3, 1, and 3 mg/kg/day from GD7 to GD20 in rabbits (HEDs of 0.097, 0.323 and 0.968 mg/kg/day). […] No-Observed-Adverse-Effect-Levels were 1.5 mg/kg/day in rats and 3 mg/kg/day in rabbits.

[4] = Pharmacokinetics in specific populations; assay type: in vivo; details: age 18-89 years, weight 41.6-133.6 kg, mild to moderate renal or hepatic impairment
[5] = tested on: FR-negative A549 cell tumor xenografts; test: Whole body imaging and tissue distribution, FR-negative A549 tumor xenografts; assay type: in vivo, mice
Procedure: The optimal dose range for pafolacianine with respect to tumor-to-background ratio in FR-positive tumor-bearing mice was 1 to 30 nmol/mouse, with lower fluorescence intensity observed in tumors at a lower dose (0.3 nmol) and higher fluorescence intensity observed in other tissues at doses above 30 nmol. In a second experiment, pafolacianine whole body imaging and tissue distribution was examined again; however, this experiment was performed in female nu/nu mice bearing FR-negative A549 cell tumor xenografts.

[6] = Embryo-fetal development study in rats; assay type: in vivo
Procedure: as §1

[7] = Safety in three open label clinical studies; assay type: in vivo, human
Procedure: The safety of the disclosed compositions were evaluated in three open label clinical studies, two studies (N=150 and N=44) in patients with ovarian cancer and one study (N=100) in patients with cancer in the lung. A total of 294 patients received 0.025 mg/kg of the disclosed compositions via intravenous administration. The mean age of patients was 63.5 years; 51% were 65 years of age or older; 89% of patients were female; and 84% of patients were white.

tumor = test: Tumor to background ratios with different mass doses; assay type: in vivo, human; details: dose of 0.025 mg per 1 kg bodyweight
From the text: Tumor to background ratios were studied with different mass doses of pafolacianine.

[8] = female, iv, 3.1 mg/kg, rats F, 3.1 mg/kg once-weekly IV, Day 0
[9] = female, iv, 3.1 mg/kg, rats F, 3.1 mg/kg once-weekly IV, Day 13
[10] = female, iv, 30.8 mg/kg, rats F, 30.8 mg/kg once-weekly IV, Day 0
[11] = female, iv, 30.8 mg/kg, rats F, 30.8 mg/kg once-weekly IV, Day 13
[12] = female, iv, 46.3 mg/kg, rats F, 46.3 mg/kg once-weekly IV, Day 0
[13] = female, iv, 46.3 mg/kg, rats F, 46.3 mg/kg once-weekly IV, Day 13
[14] = male, iv, 3.1 mg/kg, rats M, 3.1 mg/kg once-weekly IV, Day 0
[15] = male, iv, 3.1 mg/kg, rats M, 3.1 mg/kg once-weekly IV, Day 13
[16] = male, iv, 30.8 mg/kg, rats M, 30.8 mg/kg once-weekly IV, Day 0
[17] = male, iv, 30.8 mg/kg, rats M, 30.8 mg/kg once-weekly IV, Day 13
[18] = male, iv, 46.3 mg/kg, rats M, 46.3 mg/kg once-weekly IV, Day 0
[19] = male, iv, 46.3 mg/kg, rats M, 46.3 mg/kg once-weekly IV, Day 13
[20] = rats F, 3.1 mg/kg once-weekly IV, Day 13
[21] = rats F, 30.8 mg/kg once-weekly IV, Day 13
[22] = rats F, 46.3 mg/kg once-weekly IV, Day 13
[23] = rats M, 3.1 mg/kg once-weekly IV, Day 13
[24] = rats M, 30.8 mg/kg once-weekly IV, Day 13
[25] = rats M, 46.3 mg/kg once-weekly IV, Day 13

**Q.** Which results are given for CC1(C)C(=CC=C2CCCC(C=CC3=[N+](CCCCS(=O)(=O)[O-])c4ccc(S(=O)(=O)O)cc4C3(C)C)=C2Oc2ccc(CC(NC(=O)c3ccc(NCc4cnc5nc(N)[nH]c(=O)c5n4)cc3)C(=O)O)cc2)N(CCCCS(=O)(=O)O)c2ccc(S(=O)(=O)O)cc21 (stereo not shown) [pafolacianine]?
**A.** affinity to off-target proteins [1]: no significant affinity; increase in AUCinf ([2]; Day 1, genders combined): ~18 fold; increase in AUCinf ([2]; Day 13, genders combined): ~20 fold; half-life ([2]; both sexes, intravenous, rats, all doses and days, read-out: Mean T1/2 range): 6 to 11 h; AUC(0-inf) [2, 8]: 19.1 µg·h/mL; C0 [2, 8]: 21.2 µg/mL; clearance [2, 8]: 2.72 mL/min/kg; half-life ([2]; female, iv, 3.1 mg/kg, rats F, 3.1 mg/kg once-weekly IV, Day 0, read-out: T1/2 (converted)): 7.18 h; Vd [2, 8]: 1.08 L/kg; AUC(0-inf) [2, 9]: 16.6 µg·h/mL; C0 [2, 9]: 4.76 µg/mL; clearance [2, 9]: 3.1 mL/min/kg; half-life ([2]; female, iv, 3.1 mg/kg, rats F, 3.1 mg/kg once-weekly IV, Day 13, read-out: T1/2 (converted)): 8.43 h; Vd [2, 9]: 1.7 L/kg; AUC(0-inf) [2, 10]: 237 µg·h/mL; C0 [2, 10]: 194 µg/mL; clearance [2, 10]: 2.17 mL/min/kg; half-life ([2]; female, iv, 30.8 mg/kg, rats F, 30.8 mg/kg once-weekly IV, Day 0, read-out: T1/2 (converted)): 8.69 h; Vd [2, 10]: 1.14 L/kg; AUC(0-inf) [2, 11]: 291 µg·h/mL; C0 [2, 11]: 105 µg/mL; clearance [2, 11]: 1.77 mL/min/kg; half-life ([2]; female, iv, 30.8 mg/kg, rats F, 30.8 mg/kg once-weekly IV, Day 13, read-out: T1/2 (converted)): 6.06 h; Vd [2, 11]: 0.773 L/kg; AUC(0-inf) [2, 12]: 361 µg·h/mL; C0 [2, 12]: 245 µg/mL; clearance [2, 12]: 2.13 mL/min/kg; half-life ([2]; female, iv, 46.3 mg/kg, rats F, 46.3 mg/kg once-weekly IV, Day 0, read-out: T1/2 (converted)): 9.76 h; Vd [2, 12]: 1.29 L/kg; AUC(0-inf) [2, 13]: 387 µg·h/mL; C0 [2, 13]: 240 µg/mL; clearance [2, 13]: 2 mL/min/kg; half-life ([2]; female, iv, 46.3 mg/kg, rats F, 46.3 mg/kg once-weekly IV, Day 13, read-out: T1/2 (converted)): 5.76 h; Vd [2, 13]: 0.806 L/kg; AUC(0-inf) [2, 14]: 19.2 µg·h/mL; C0 [2, 14]: 27.7 µg/mL; clearance [2, 14]: 2.68 mL/min/kg; half-life ([2]; male, iv, 3.1 mg/kg, rats M, 3.1 mg/kg once-weekly IV, Day 0, read-out: T1/2 (converted)): 8.25 h; Vd [2, 14]: 1.24 L/kg; AUC(0-inf) [2, 15]: 21 µg·h/mL; C0 [2, 15]: 24 µg/mL; clearance [2, 15]: 2.47 mL/min/kg; half-life ([2]; male, iv, 3.1 mg/kg, rats M, 3.1 mg/kg once-weekly IV, Day 13, read-out: T1/2 (converted)): 9.67 h; Vd [2, 15]: 1.5 L/kg; AUC(0-inf) [2, 16]: 235 µg·h/mL; C0 [2, 16]: 165 µg/mL; clearance [2, 16]: 2.18 mL/min/kg; half-life ([2]; male, iv, 30.8 mg/kg, rats M, 30.8 mg/kg once-weekly IV, Day 0, read-out: T1/2 (converted)): 10.9 h; Vd [2, 16]: 1.53 L/kg; AUC(0-inf) [2, 17]: 329 µg·h/mL; C0 [2, 17]: 202 µg/mL; clearance [2, 17]: 1.56 mL/min/kg; half-life ([2]; male, iv, 30.8 mg/kg, rats M, 30.8 mg/kg once-weekly IV, Day 13, read-out: T1/2 (converted)): 10.4 h; Vd [2, 17]: 1.15 L/kg; AUC(0-inf) [2, 18]: 342 µg·h/mL; C0 [2, 18]: 263 µg/mL; clearance [2, 18]: 2.27 mL/min/kg; half-life ([2]; male, iv, 46.3 mg/kg, rats M, 46.3 mg/kg once-weekly IV, Day 0, read-out: T1/2 (converted)): 7.99 h; Vd [2, 18]: 1.41 L/kg; AUC(0-inf) [2, 19]: 380 µg·h/mL; C0 [2, 19]: 269 µg/mL; clearance [2, 19]: 2.03 mL/min/kg; half-life ([2]; male, iv, 46.3 mg/kg, rats M, 46.3 mg/kg once-weekly IV, Day 13, read-out: T1/2 (converted)): 7.35 h; Vd [2, 19]: 1.12 L/kg; DN AUCinf ([2]; rats F, 3.1 mg/kg once-weekly IV, Day 0): 6.15 (μg · h/mL)/(mg/kg); Accumulation Ratio [2, 20]: 0.874; DN AUCinf [2, 20]: 5.37 (μg · h/mL)/(mg/kg); DN AUCinf ([2]; rats F, 30.8 mg/kg once-weekly IV, Day 0): 7.70 (μg · h/mL)/(mg/kg); Accumulation Ratio [2, 21]: 1.23; DN AUCinf [2, 21]: 9.45 (μg · h/mL)/(mg/kg); DN AUCinf ([2]; rats F, 46.3 mg/kg once-weekly IV, Day 0): 7.80 (μg · h/mL)/(mg/kg); Accumulation Ratio [2, 22]: 1.07; DN AUCinf [2, 22]: 8.35 (μg · h/mL)/(mg/kg); DN AUCinf ([2]; rats M, 3.1 mg/kg once-weekly IV, Day 0): 6.19 (μg · h/mL)/(mg/kg); Accumulation Ratio [2, 23]: 1.09; DN AUCinf [2, 23]: 6.76 (μg · h/mL)/(mg/kg); DN AUCinf ([2]; rats M, 30.8 mg/kg once-weekly IV, Day 0): 7.63 (μg · h/mL)/(mg/kg); Accumulation Ratio [2, 24]: 1.40; DN AUCinf [2, 24]: 10.7 (μg · h/mL)/(mg/kg); DN AUCinf ([2]; rats M, 46.3 mg/kg once-weekly IV, Day 0): 7.39 (μg · h/mL)/(mg/kg); Accumulation Ratio [2, 25]: 1.11; DN AUCinf [2, 25]: 8.20 (μg · h/mL)/(mg/kg); accumulation or changes in TK parameters after repeated dosing ([2]; rats, once-weekly dosing for 3 weeks): no accumulation or changes in TK parameters were evident; Estimated systemic exposure relative to human exposure at 0.025 mg/kg (AUC comparison) ([3]; rabbit): 570 times; maternal toxicity and embryo-fetal development toxicity ([3]; rabbits, 0.3, 1, 3 mg/kg/day IV): No significant drug-related maternal toxicity and embryo-fetal development toxicity; No-Observed-Adverse-Effect-Level ([3]; rabbits, IV, GD7 to GD20): 3 mg/kg/day; differences in pharmacokinetics by age, weight, renal or hepatic impairment [4]: No clinically significant differences; fluorescence in FR-negative tumors [5]: no fluorescence observed; fluorescence in kidneys [5]: fluorescence was primarily noted in kidneys; Estimated systemic exposure relative to human exposure at 0.025 mg/kg (AUC comparison) ([6]; rat): 158 times; maternal toxicity and embryo-fetal development toxicity ([6]; rats, 0.015, 0.15, 1.5 mg/kg/day IV): No significant drug-related maternal toxicity and embryo-fetal development toxicity; No-Observed-Adverse-Effect-Level ([6]; rats, IV, GD6 to GD17): 1.5 mg/kg/day; Adverse reaction: abdominal pain ([7]; 294 patients, 0.025 mg/kg IV): 2.7%; Adverse reaction: chest discomfort ([7]; 294 patients, 0.025 mg/kg IV): 1%; Adverse reaction: dyspepsia ([7]; 294 patients, 0.025 mg/kg IV): 1%; Adverse reaction: flushing ([7]; 294 patients, 0.025 mg/kg IV): 1.7%; Adverse reaction: hypersensitivity ([7]; 294 patients, 0.025 mg/kg IV): 1%; Adverse reaction: nausea ([7]; 294 patients, 0.025 mg/kg IV): 15%; Adverse reaction: pruritus ([7]; 294 patients, 0.025 mg/kg IV): 1%; Adverse reaction: vomiting ([7]; 294 patients, 0.025 mg/kg IV): 5.8%; patients with adverse reactions during the administration ([7]; 294 patients, 0.025 mg/kg IV): 2.4%; time of occurrence of reactions after start of infusion ([7]; typically): ≤ 15 min; tumor to background ratio (tumor): High
